Measured values: US20240025903A1, “Bicyclic Compounds and Uses Thereof for the Treatment of Diseases” (Athira Pharma, Inc., priority 2020, published 2024)
Where two headings read alike, the source gives them in different places.

How the values were obtained:
[1] = biological target: T1, HGF/MET system (Homo sapiens, UniProt P08581+P14210); assay: Phospho-MET ELISA; assay type: cell-based; conditions: HEK293 cells, 1 ng/mL recombinant HGF, 15 minutes, pMET ELISA
T1 construct: HEK293 cells were prepared by passage into 6-well multi-plates; endogenous in cells; host or cells: HEK293
T1 sequence (P08581 308-1390 limits assumed): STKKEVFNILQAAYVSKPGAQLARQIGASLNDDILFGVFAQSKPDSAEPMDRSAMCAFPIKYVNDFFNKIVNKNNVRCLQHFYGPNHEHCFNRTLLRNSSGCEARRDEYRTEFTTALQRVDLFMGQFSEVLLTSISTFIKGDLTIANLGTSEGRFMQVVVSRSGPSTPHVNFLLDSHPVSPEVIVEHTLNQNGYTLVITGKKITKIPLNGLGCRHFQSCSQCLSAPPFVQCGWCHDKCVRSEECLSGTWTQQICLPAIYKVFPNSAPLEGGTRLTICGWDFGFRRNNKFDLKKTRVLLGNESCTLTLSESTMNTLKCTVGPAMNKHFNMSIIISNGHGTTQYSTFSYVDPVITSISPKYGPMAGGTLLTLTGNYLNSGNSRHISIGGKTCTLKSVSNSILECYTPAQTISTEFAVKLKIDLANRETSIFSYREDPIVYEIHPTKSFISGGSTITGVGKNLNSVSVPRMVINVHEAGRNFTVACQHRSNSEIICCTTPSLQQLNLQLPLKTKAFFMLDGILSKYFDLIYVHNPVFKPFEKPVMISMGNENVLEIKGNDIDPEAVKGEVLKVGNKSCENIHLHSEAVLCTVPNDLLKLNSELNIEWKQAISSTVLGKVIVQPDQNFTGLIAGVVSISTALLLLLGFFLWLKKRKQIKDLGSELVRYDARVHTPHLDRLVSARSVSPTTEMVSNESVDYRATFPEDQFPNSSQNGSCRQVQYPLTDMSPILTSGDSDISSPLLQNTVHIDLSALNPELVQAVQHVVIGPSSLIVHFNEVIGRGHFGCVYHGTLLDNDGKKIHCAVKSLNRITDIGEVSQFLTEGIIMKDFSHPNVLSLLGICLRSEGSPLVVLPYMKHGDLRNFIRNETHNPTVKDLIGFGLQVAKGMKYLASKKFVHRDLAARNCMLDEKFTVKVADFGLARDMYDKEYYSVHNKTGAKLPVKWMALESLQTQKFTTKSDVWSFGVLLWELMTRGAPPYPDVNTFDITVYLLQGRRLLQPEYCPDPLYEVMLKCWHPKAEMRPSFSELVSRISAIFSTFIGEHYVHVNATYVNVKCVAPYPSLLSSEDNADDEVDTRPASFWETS
T1 sequence (P14210 32-494 limits assumed): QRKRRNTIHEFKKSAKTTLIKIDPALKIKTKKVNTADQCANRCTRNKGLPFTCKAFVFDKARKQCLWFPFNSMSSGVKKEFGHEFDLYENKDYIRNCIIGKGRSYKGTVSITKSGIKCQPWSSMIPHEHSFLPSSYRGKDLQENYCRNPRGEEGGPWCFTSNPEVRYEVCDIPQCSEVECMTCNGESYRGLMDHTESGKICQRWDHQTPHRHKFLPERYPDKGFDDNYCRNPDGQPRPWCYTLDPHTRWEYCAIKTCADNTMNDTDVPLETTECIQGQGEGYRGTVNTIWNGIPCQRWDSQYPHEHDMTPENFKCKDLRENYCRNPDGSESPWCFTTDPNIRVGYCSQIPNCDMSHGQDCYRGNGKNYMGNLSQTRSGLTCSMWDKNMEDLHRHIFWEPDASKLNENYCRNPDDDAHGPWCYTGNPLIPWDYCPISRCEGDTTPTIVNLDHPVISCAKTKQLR
How it was run: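 Serum-starved (≥8 h) HEK293 cells treated with compound plus 1 ng/mL recombinant HGF for 15 min at 37° C in triplicate, then lysed in RIPA. Equal protein (50–100 μg, BCA-normalized) run in pMET sandwich ELISA, A450 read. Responses scaled 1–10 between 1 ng/mL and 10 ng/mL HGF means, using peak efficacy.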

[2] = In vitro stability in simulated gastric and intestinal fluids; assay type: in vitro ADME; conditions: 37° C.
Protocol: (§1) Bioavailability can be estimated by compound stability when exposed to conditions in the body. As an initial assessment of stability properties in a variety of conditions present in animals, exemplary compounds were tested for stability in a battery of simulated body compartments. Compounds were tested for stability in the following solutions: simulated gastric fluid (SGF: 34.2 mM NaCl, pH 1.2), simulated gastric fluid with the digestive enzyme pepsin (SGF+Enzyme: SGF with 3.2 mg/ml pepsin), simulated intestinal fluid with the mixture of enzymes in porcine pancreatin (SIF+Enzyme: 28.7 mM NaH2PO4, 105.7 mM NaCl, pH 6.8, 10 mg/ml pancreatin), rat plasma, and human plasma.
(§2) Test compounds were incubated at a final concentration of 5 μM in the above solutions at 37° C. with samples removed at the following time points: 0, 1, 2, and 4 hours. Reactions were stopped and prepared for quantification by addition of excess quench solution containing an internal standard (acetonitrile, 200 ng/mL bucetin). Test compound and internal standard in each sample was quantified by LC-MS/MS, and after internal normalization to bucetin, test compound concentration was expressed as a percentage of concentration at the 0-hour time point. Stability in the relevant test solution was then determined by the percent remaining at the 4-hour time point.

[3] = In vitro stability in rat plasma; assay type: in vitro ADME; conditions: 5 μM, 37° C.
Protocol: as §1, §2

[4] = In vitro stability in human plasma; assay type: in vitro ADME; conditions: 5 μM, 37° C.
Protocol: as §1, §2

[5] = Non-specific protein binding (rapid equilibrium dialysis); assay type: in vitro ADME, Sprague-Dawley rats; conditions: both sexes, Sprague-Dawley, RED device, 4-hour incubation at 37° C.
Protocol: Plasma and tissue exposures of exemplary compounds were scaled by their non-specific affinity for protein binding in target tissues or fluids to determine the fraction of compound available for interaction with the target. Non-specific binding was determined in blood plasma and brain homogenate collected from mixed-sex Sprague-Dawley rats.
Known concentrations of test compounds were mixed with plasma or brain homogenate and incubated in the donor chamber of a rapid equilibrium dialysis (RED) device with empty PBS buffer in the receiving chamber. After a 4-hour incubation at 37° C. in an orbital shaking incubator, compound in each chamber was quantified by LC-MS/MS. The unbound fraction (fu,tissue) was calculated using the following formula:
[formula] • where: • fu,tissue is the unbound fraction in the tissue; • fu,homogenate is the ratio of concentration in the buffer chamber to concentration in the sample chamber; and • D is the dilution factor used to produce the sample.

[6] = In vivo tissue distribution; parameters: species or system Sprague-dawley rats; conditions: rat
Protocol: The rate of distribution to target tissues is an important feature of therapeutic molecules. Tissue distribution of exemplary compounds was performed in mixed-sex Sprague-dawley rats. Test compounds were delivered via tail vein injection (IV) and tissues were collected at Tmax (10 minutes post administration). Animals were deeply anesthetized with isoflurane and whole blood was collected from the right atrium and processed by centrifugation to produce plasma. Animals were then fully perfused with PBS administered to the left ventricle to prevent blood contamination of tissues.
Tissues were collected and homogenized, and compound content in the target tissue was quantified by LC-MS/MS. Tissue distribution rates were determined by dividing the tissue concentration of compound by the plasma concentration and multiplying by 100.

With `C=CCCN1CC2N(C(=O)c3ccc(C(F)(F)F)cc3)CCC(=O)N2C(C)C1=O` (stereo not shown) [Compound 22] the “Potency (augmentation of MET phosphorylation)” value [1] was “+++ (+++ indicates maximum potency at or above 1 nM)”, the “SGF + Enz (compound remaining after 4 hours)” value ([2]; SGF with 3.2 mg/ml pepsin, 5 μM) was “+++ (+++ indicates 80-99% compound remaining after 4 hours)” and the “SGF (compound remaining after 4 hours)” value ([2]; simulated gastric fluid pH 1.2, 5 μM) was “+++ (+++ indicates 80-99% compound remaining after 4 hours)”. For the same compound, the “SIF (compound remaining after 4 hours)” value ([2]; simulated intestinal fluid pH 6.8 with 10 mg/ml pancreatin, 5 μM) was “+++ (+++ indicates 80-99% compound remaining after 4 hours)”, the “Rat Plasma (compound remaining after 4 hours)” value [3] was “+++ (+++ indicates 80-99% compound remaining after 4 hours)” and the “Human Plasma (compound remaining after 4 hours)” value [4] was “+++ (+++ indicates 80-99% compound remaining after 4 hours)”. The fraction unbound at 4 h ([5]; rat blood plasma, read-out: Unbound Fraction Plasma) was 0.1 to 0.5, the fraction unbound at 4 h ([5]; rat brain homogenate, read-out: Unbound Fraction Brain) was greater than 0.9 and the “Tissue Distribution (% Plasma exposure at 10 min post IV dose) Brain” value ([6]; brain) was “++ (++ indicates distribution between 5 and 39%)”. The “Tissue Distribution (% Plasma exposure at 10 min post IV dose) Cerebellum” value ([6]; cerebellum) was “++ (++ indicates distribution between 5 and 39%)”, the “Tissue Distribution (% Plasma exposure at 10 min post IV dose) Cortex” value ([6]; cortex) was “++ (++ indicates distribution between 5 and 39%)” and the “Tissue Distribution (% Plasma exposure at 10 min post IV dose) Hippocampus” value ([6]; hippocampus) was “++ (++ indicates distribution between 5 and 39%)”. For the same compound, the “Tissue Distribution (% Plasma exposure at 10 min post IV dose) Sciatic Nerve” value ([6]; sciatic nerve) was “+++ (+++ indicates distribution between 40 and 69%)”.
